# Test results from patent US20100009395A1, “LUMINESCENCE ASSAY UTILIZING A GENETICALLY MODIFIED CELL LINE” (priority 2006, published 2010).
# “Also recorded” adds a separate entry of the source.
# Assays:
# Assay type in all cases: cell-based
# [1] = system: native I-kappa B and I-kappa B-luciferase (IkB-Luc); experiment: Western blot of total cell lysates from TNF-alpha-treated HCT-116 cells; conditions: incubation with TNF-alpha
# Procedure: In this experiment the degradation of I-kappa B was investigated. The I-kappa B was stably expressed as a fusion protein with the firefly luciferase in HCT-116 colon cancer cells. Presence of I-kappa B can then be monitored by luminescence activity. It was determined that the fusion protein is subject to similar levels of degradation in response to a stimulus such as tumor necrosis factor-alpha (TNF-alpha), a known inducer of phosphorylation and degradation of I-kappa B, as would be the case with the native of I-kappa B. Western blot analyses of total cell lysates from TNF-alpha-treated cells were subjected to western blot analyses. Both, native I-kappa B and I-kappa B-luciferase (IkB-Luc) levels were decreased within 20 minutes of incubation with TNF-alpha.
# COX-2 gene expression = experiment: COX-2 expression in HCT-116 cells after induction with TNF-alpha, EGF or IL-1; conditions: 1 hour pre-incubation, then TNF-alpha, EGF or IL-1 for 1 hour
# Procedure: Endogenous levels of COX-2 were determined following addition of the three botanical extracts. After incubating the HCT-116 cells with the different fractions for 1 hour, the cells were treated with TNF-alpha, EGF or IL-1 […] (all known inducers of COX-2 expression) for an additional 1 hour to induce high levels of COX-2 expression.
# [2] = system: I-kappa B-luciferase (IkB-Luc) fusion protein; experiment: IkB-Luc degradation luciferase (luminescence imaging) assay in stably transfected HCT-116 cells; conditions: human urine sample two hours after ingestion of 8 g curcumin
# Procedure: This construct has been transfected into HeLa and HCT-116 cells.
# The substrate for luciferase, D-luciferin was also added to the cells at the same time, and the cells were incubated in extremely light-tight, low-background imaging chamber, at 37° C. Photon luminescence emitted from the cells is detected with a back-thinned CCD camera, designed for high-efficiency photon detection, particularly in the important red region of the spectrum.
# The imaging assay cells were plated in a 24 well dish and allowed to grow for 24 hours; they were then treated with 10 ng/ml TNF-alpha, the substrate for luciferase, D-luciferin was also added at the same time, the cells were then incubated in a light-tight, low background imaging chamber, at 37° C.
# Photon luminescence emitted from the cells was detected with a back-thinned CCD camera, designed for high-efficiency photon detection. The CCD is cooled and the electronic readout is optimized so that the data gathered extremely low noise.
# HCT-116 cells stably expressing I-kB-Luc were incubated for 2 hours with increasing concentrations (0-1000 μl) control or post-curcumin ingested urine. Subsequently, some of the cells were treated with TNF-alpha. The level of I-kB degradation was determined by the luciferase assay. […] Similar experiments were conducted with black raspberry extracts.
Compound,time to decrease of native I-kappa B and IkB-Luc levels [1],COX-2 gene expression (COX-2 gene expression),protection of IkB-Luc from TNF-alpha-mediated degradation [2],protection of IkB-Luc from TNF-alpha-mediated degradation ([2]; listed as cucurmin)
TNF-alpha,≤ 20 min,,,
COc1cc(/C=C/C(=O)CC(=O)/C=C/c2ccc(O)c(OC)c2)ccc1O [curcumin],,inhibitor of COX-2 gene expression,significant increase in the protection of the IkB-Luc from TNF-alpha-mediated degradation; also recorded: reduced the TNF degradation of I kappa B-Luc,significantly inhibited the IkB-Luc degradation
